{"source": "patent US20250090541A1", "about": "“Methods for Treating Neurodegenerative Disorders” (Praetego Inc, priority 2022, published 2025)", "assay_type_in_all_cases": "in vivo", "key": {"human tau mice [1]": {"tested_on": "human tau mice", "test": "Barnes maze long-term memory, human tau mice", "conditions": "by week 23 of treatment (between week 19 and 23), male and female combined", "text": "(§1) The human tau mouse is a model of sporadic dementia that expresses human non-mutant tau (6 isoforms) in the absence of endogenous mouse tau. The model develops age-associated pathology, with hyperphosphorylated tau detected in cell bodies and dendrites by 3 months of age (Andorfer et al., 2003; J Neurochem 86, 582-590, doi:10.1046/j.1471-4159.2003.01879.x). These mice display abnormal spatial learning by 6 months of age and impaired learning in the Morris water maze with memory loss by 12 months of age, as well as memory deficits in the Barnes maze by 6 months of age (Marquez et al, 2021).\n(§2) Female and male human tau mice (Jax #005491) were treated daily for 25 weeks with PTG-630 trihydrochloride at 1 and 5 mg/kg in drinking water starting at 10 weeks of age (before cognitive deficits appear).\n(§3) Learning and memory were assessed using the Barnes maze test and the object recognition test at 6-8, 12-13, 18-19 and 24-25 weeks. Corneal nerves were imaged by corneal confocal microscopy (CCM) at week 6, 9, 12, 18 and 25. Data represent male and female results combined, mean±sem.\nUsing the Barnes maze test, long-term memory was assessed between week 13 and 19 and between week 19 and 23 of treatment (FIG. 1A, B)."}, "human tau mice [2]": {"tested_on": "human tau mice", "test": "Object recognition test, human tau mice", "text": "as §1, §2, §3"}, "PSD95": {"tested_on": "PSD95", "test": "Western blot of hippocampus, human tau mice: PSD95", "conditions": "1 and 5 mg/kg, tendency", "method": "as §2\n(§4) Mouse Hippocampus were processed for Western blotting analysis of (A) Drebrin (actin binding protein in dendritic spines, role in neuronal growth, a decrease=contributing factor in the pathogenesis of memory disturbance), (B) PSD95 (a post-synaptic protein, role in the regulation of excitatory synapse maturity), and (C) NeuN (neuronal nuclear antigen, biomarker for neurons, decrease=neuronal loss) (FIG. 3)."}, "NeuN": {"tested_on": "NeuN", "test": "Western blot of hippocampus, human tau mice: NeuN", "conditions": "5 mg/kg", "method": "as §2, §4"}, "[3]": {"tested_on": "carboxymethyl Lysine (CML)", "test": "Carboxymethyl lysine (CML) by LC-MS/MS in terminal plasma and brain cortex, htau mice", "method": "as §2\nTerminal plasma and brain cortex were also analyzed for carboxymethyl Lysine (CML), a prominent advanced glycation end-product (AGE), by an LC-MS/MS quantitative chemical analysis method. PTG-630 and PTG-670 were developed as potent AGE inhibitors and tested for amelioration of PNS and CNS damage due to the extensive work that implicated AGE formation as a causative factor in the development of neurodegenerative pathologies."}}}
{"compound": "Cc1ncc(CN2CCOCC2)c(-c2ncc[nH]2)c1O", "note": "[PTG-630, 4-(1H-imidazol-2-yl)-2-methyl-5-(morpholinomethyl)pyridin-3-ol]", "values": [{"measurement": "long-term memory impairment in Barnes maze", "setting": "human tau mice [1]", "value": "significantly prevented"}, {"measurement": "short term episodic memory deficits in Object recognition test", "setting": "human tau mice [2]; 1 mg/kg in drinking water", "value": "partially ameliorated"}, {"measurement": "short term episodic memory deficits in Object recognition test", "setting": "human tau mice [2]; 5 mg/kg in drinking water for 17 weeks", "value": "significantly alleviated"}, {"measurement": "short-term episodic memory (recognition index)", "setting": "human tau mice [2]; FIG. 2 legend, dose not stated", "value": "partially prevented"}, {"measurement": "levels of PSD95 protein in hippocampus", "setting": "PSD95", "value": "dose-dependly ameliorate"}, {"measurement": "neuronal loss (NeuN) in hippocampus", "setting": "NeuN", "value": "partially alleviated"}, {"measurement": "CML levels in cortex", "setting": "[3]; female htau mice, 5 mg/kg", "value": "significantly (p<0.05) reduced"}, {"measurement": "CML levels in cortex", "setting": "[3]; male", "value": "No significant difference"}, {"measurement": "CML levels in plasma", "setting": "[3]; male and female", "value": "No significant difference"}]}
